Laboratory results taken from ChEMBL document CHEMBL4627311, “Discovery of 4-((1-(1H-imidazol-2-yl)alkoxy)methyl)pyridines as a new class of Trypanosoma cruzi growth inhibitors” (Bioorg Med Chem Lett, 2020).

What follows are molecules tested against Sterol 14-alpha demethylase (Trypanosoma cruzi (strain CL Brener), UniProt Q7Z1V1) (assay: Inhibition of Trypanosoma cruzi CYP51).
Sterol 14-alpha demethylase, sequence (Q7Z1V1 whole entry): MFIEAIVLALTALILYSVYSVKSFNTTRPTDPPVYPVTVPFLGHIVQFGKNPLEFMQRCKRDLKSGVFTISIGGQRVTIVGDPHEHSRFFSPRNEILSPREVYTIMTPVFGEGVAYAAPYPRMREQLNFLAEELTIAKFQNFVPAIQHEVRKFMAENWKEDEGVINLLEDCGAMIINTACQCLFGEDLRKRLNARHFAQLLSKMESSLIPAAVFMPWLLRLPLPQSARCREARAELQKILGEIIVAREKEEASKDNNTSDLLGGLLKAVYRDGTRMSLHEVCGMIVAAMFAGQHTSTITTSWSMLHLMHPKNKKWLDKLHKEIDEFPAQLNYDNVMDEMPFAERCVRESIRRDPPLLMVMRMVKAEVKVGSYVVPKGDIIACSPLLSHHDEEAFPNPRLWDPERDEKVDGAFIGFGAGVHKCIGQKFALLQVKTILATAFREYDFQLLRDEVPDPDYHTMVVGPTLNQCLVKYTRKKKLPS

Q: Which IC50 does the source give for `CCC(=O)CCCCCC(Oc1ccc2ccccc2c1)c1ncc(Cc2ccncc2)[nH]1` (stereo in doubt; 11) here?
A: The IC50 was 0.052 µM.

Q: How did the IC50 turn out when `CCC(=O)CCCCCC(OCc1ccncc1)c1ncc(-c2ccc3ccccc3c2)o1` (centres undefined) was run?
A: The IC50 was 0.053 µM.

Q: With `CCC(=O)CCCCCC(Oc1ccc2ccccc2c1)c1ncc(Cc2ccncc2)[nH]1` (stereo in doubt; 35) as the molecule, how does the IC50 read?
A: The IC50 was 0.034 µM.

Q: `CCC(=O)CCCCCC(Oc1ccc2ccccc2c1)c1ncc(Cc2ccccc2)[nH]1` (centres undefined) was tested. Which IC50 did it give?
A: Its IC50 is 2.9 µM.

Q: `CC(OCc1ccncc1)c1ncc(-c2ccc3ccccc3c2)[nH]1` (centres undefined) was tested. Which IC50 did it give?
A: The IC50 was 0.077 µM.

Q: `CCC(=O)CCCCCC(Oc1ccc2ccccc2c1)c1ncc(Cc2ccncc2)[nH]1` (stereo in doubt; 34) was tested. Which IC50 did it give?
A: Its IC50 is 0.041 µM.

The molecules below were run on Trypanosoma cruzi (assay: Antitrypanosomal activity against Trypanosoma cruzi).
Type: functional, organism-based

Q: `O=C(Cn1ccnc1[N+](=O)[O-])NCc1ccccc1` [BENZNIDAZOLE] was tested. Which EC50 did it give?
A: The EC50 was 2 µM.

Q: How did the EC50 turn out when `CCC(=O)CCCCCC(Oc1cc2ccccc2nc1OC)c1ncc(Cc2ccncc2)[nH]1` (centres undefined) was run?
A: Its EC50 is 2 µM.

Q: Which EC50 does the source give for `CC1CS(=O)(=O)CCN1/N=C/c1ccc([N+](=O)[O-])o1` (centres undefined) [NIFURTIMOX] here?
A: Its EC50 is 8 µM.
